Experimental data: patent US20030157208A1, “Cynomoriaceae extract and use in treating erectile dysfunction” (priority 2001, published 2003)
Converted amounts (≈) assume the structure as drawn.

Test system: rat corpus cavernosum tissue
Assay: Relaxation of norepinephrine-precontracted isolated rat corpus cavernosum strips (organ bath)
Type: cell-based, Sprague-Dawley (SD) rats
Protocol: The extracts of this invention may be tested for their activity for alleviating or preventing symptoms erectile dysfunction by techniques known in the art. The test is similar to the endothelium-dependent vasorelaxatin test reported by Fitzpatrick et al., 1995. In general, in accordance with this protocol, plant extracts are tested for endothelium-dependent relaxation (EDR) by measuring the relaxation or contraction imparted by diluted samples to an appropriate tissue sample precontacted by norepinephrine to arrive at an EDR value that is the percentage of relaxation imparted. […] Experiments were performed on male, eight to twelve week old, 278.86±6.85 g Sprague-Dawley (SD) rats. Rats were housed in an animal care facility at the College of Medicine, University of Saskatchewan. Rats were anaesthetized with sodium pentobarbital (50 mg/kg) by intraperitoneal injection. The whole penis of one rat (shown at 10 in FIG. 3A) was gently dissected out and put into a Petri dish containing ice-cold Krebs' solution. The portion of the penis used for the experiments is shown generally at 12 in FIG. 3A. The penis was cleaned and the connective tissues were removed. The section 12 was prepared for testing as a proximal section (10 mm in length) of the corpus cavernosum 18, which was cut longitudinally into two pieces and the size of each piece was about 1×1×10 mm. […] The pH of this bath solution 23 was adjusted to 7.2. The corpus cavemosum strips 19 were tied with silk threads 24 at each end with one end immobilized at 26 on the inner wall of the organ bath chamber 20, and the other hooked to a transducer 28 (FT 03, Grass Ins. Co., Quincy). […] Strips 19 were contracted with 10 μM norepinephrine. After the plateau phase of contraction had been reached, the cumulative concentration-response relationships of BuSY and BuSY608 were tested. […] As a control and comparison compound, sildenafil ([…]®) was also used to test the penile tissue response (tissues prepared as above). […]

- EC50 (Rattus norvegicus, strips precontracted with 10 μM norepinephrine, cumulative concentration-response, n=6): 11.4 µg/mL (≈ 24 µM)
Compound: CCCc1nn(C)c2c(=O)[nH]c(-c3cc(S(=O)(=O)N4CCN(C)CC4)ccc3OCC)nc12 [sildenafil]
- maximal relaxation (induced by 200 μg/ml, norepinephrine-precontracted strips, n=6): 66.7±6.1%
- concentration at which relaxation was initiated (norepinephrine-precontracted strips, cumulative concentration ladder): 0.6 µg/mL
